Assay results from patent publication US20070059756A1, “Immunointeractive molecules and their uses in treating subjects suffering from Hev b 5 allergies” (priority 1999, published 2007).

What was measured:
IL-5 = IL-5 production by latex specific oligoclonal T cells (ELISA on culture supernatants); assay type: cell-based, human; details: for IL-5: supernatant at 48 hours
Procedure: (§1) Representative stimulatory and non-stimulatory peptides were selected and T cells cultured in triplicate with these peptides. At 48 hours 50 μl of supernatant was harvested from the cultures and IL-5 and IFNγ were assayed by ELISA using paired cytokine antibodies (from Pharmingen Becton Dickinson, USA and Endogen, USA respectively). For this, opaque flat bottom ELISA plates (Nalgene, Nunc International) were coated with 30 μl capture antibody at 2 μg/ml in 0.1 M NaHCO3 pH 8.2 coating buffer overnight at 4° C. After washing three times with PBS/0.5% Tween the wells were blocked with 3% BSA/PBS at room temperature for 2 hours. The plates were washed and 30 μL pooled triplicate culture supernatants added in duplicate. […] Light emission was read immediately on a Lumicount microplate Glow Luminometer (Packard Instrument Company). A standard curve was run each time using known concentrations of standard cytokine samples and the concentrations of IL-S and IFNγ in the culture supernatants calculated accordingly. The lower limit of detection of the IL-5 assay was 20 pg/ml and the lower limit of detection of the IFN-γ assay was 2 pg/ml.

IFNγ = IFNγ production by latex specific oligoclonal T cells (ELISA on culture supernatants); assay type: cell-based, human; details: supernatant at 48 hours
Procedure: as §1

[1] = test system: latex specific T cell lines; experiment: Oligoclonal T cell proliferation assay (3H-thymidine incorporation); assay type: cell-based, human; set-up: key to Proliferation inducing (+) or non-inducing (−) peptide: Proliferation inducing and non-inducing peptides are indicated by (+) and (−) respectively; Proliferation inducing and non-inducing peptides are indicated by (+) and (−) respectively; details: for Oligoclonal proliferative response: 4 day cultures
Procedure: Latex specific T cell lines were isolated using our well established methods for the generation of allergen specific oligoclonal T cell populations (O'Hehir et al., 1987). An initial primary culture was performed for each patient to determine the optimal concentration of LAL for stimulation. For this, peripheral blood mononuclear cells (PBMC) separated from heparinised venous blood by density centrifugation (2×10^5/well) were stimulated with LAL over a concentration range 0.03 to 100 μg/ml, with control cultures of PBMC alone or stimulated with tetanus toxoid. All cultures were maintained in complete medium (RPMI-1640, Gibco Life Technologies supplemented with 2 mmol/L L-glutamine, 100 IU/ml penicillin-streptomycin and 5% screened, heat inactivated human AB serum [Sigma]). […] Therefore, to generate T cell lines, PBMC (2.5×10^6/well) were stimulated for 1 week with LAL at a concentration of 20 μg/ml in 24-well tissue culture plates (Costar, USA). After 7 days, lymphoblasts (1×10^6/well) were restimulated for one week with LAL at a concentration of 20 μg/ml in the presence of an equal number of irradiated (3000 rad) autologous PBMC as antigen presenting cells (APC). On days 2 and 4, cultures were supplemented with Lymphocult-T (5% v/v; Biotest Folex, Germany) and fresh medium. At the end of the second week, lymphoblasts were restimulated for one week with rhev b 5/MBP at a concentration of 20 μg/ml as described above. Oligoclonal T cells were recovered, washed and tested in proliferation and cytokine assays (as described below) either fresh or after cryopreservation in liquid nitrogen. We have previously shown that CD4^+ T cells are preferentially expanded in these cultures.
Oligoclonal T cell blasts (5×10^4) were incubated in 96-well round bottom plates (Linbro, ICN Biomedicals, USA) in triplicate with equal numbers of irradiated APC in the presence of LAL at concentrations ranging from 0.03-100 μg/ml, rHev b 5/MBP (10 and 20 μg/ml), MBP (10 and 20 μg/ml), overlapping peptides of the Hev b 5 sequence (10 and 30 μg/ml), Lymphocult-T (10 IU/ml) or PHA (3 μg/ml). Cultures of T cells and APC in the absence of antigen, T cells alone and APC alone in the absence of antigen were included as controls. After 72 hours cultures were pulsed with 1 μCi of ^3H-thymidine (^3HTdR; Du Pont, NEN) and harvested 12-16 hours later. Proliferation as correlated with ^3HTdR incorporation was measured by liquid scintillation spectroscopy. Results are expressed as mean counts per minute (cpm) for triplicate cultures with standard deviation (SD; ±20% for all experiments).

IgE = details: cited from earlier work
[2] = P1 T cell line, peptide 10 μg/ml
[3] = P1 T cell line, peptide 30 μg/ml
[4] = P2 T cell line, peptide 10 μg/ml
[5] = P2 T cell line, peptide 30 μg/ml
[6] = P3 T cell line, peptide 10 μg/ml
[7] = P3 T cell line, peptide 30 μg/ml
[8] = P4 T cell line, peptide 10 μg/ml
[9] = P4 T cell line, peptide 30 μg/ml

TPEKEEPTAAPAEPEAPAPE [Hev b 5 (46-65)] gave an IL-5/IFNγ ratio (IL-5; [2]) of 172, an IL-5 (IL-5; [2]) of 344 pg/mL and an IL-5/IFNγ ratio (IL-5; [3]) of 139.5. The IL-5 (IL-5; [3]) was 279 pg/mL, the IL-5/IFNγ ratio (IL-5; [4]) was 3.2 and the IL-5 (IL-5; [4]) was 58 pg/mL. The IL-5/IFNγ ratio (IL-5; [5]) was 7.6, the IL-5 (IL-5; [5]) was 408 pg/mL and the IL-5/IFNγ ratio (IL-5; [6]) was 9.8. It also gave an IL-5 (IL-5; [6]) of 3799 pg/mL, an IL-5/IFNγ ratio (IL-5; [7]) of 14 and an IL-5 (IL-5; [7]) of 3186 pg/mL. It also gave an IL-5/IFNγ ratio (IL-5; [8]) of 22.4, an IL-5 (IL-5; [8]) of 561 pg/mL and an IL-5/IFNγ ratio (IL-5; [9]) of 43.2. For the same molecule, the IL-5 (IL-5; [9]) was 519 pg/mL, the “secretion of IL-5 (in words)” value (IL-5; patient 4 T cell line) was “secretion of IL-5” and the IFNγ (IFNγ; [2]) was 2 pg/mL. For the same molecule, the IFNγ (IFNγ; [3]) was 2 pg/mL, the IFNγ (IFNγ; [4]) was 18 pg/mL and the IFNγ (IFNγ; [5]) was 54 pg/mL. The IFNγ (IFNγ; [6]) was 388 pg/mL, the IFNγ (IFNγ; [7]) was 227 pg/mL and the IFNγ (IFNγ; [8]) was 25 pg/mL. For the same molecule, the IFNγ (IFNγ; [9]) was 12 pg/mL, the “Proliferation inducing (+) or non-inducing (−) peptide” value ([1]; P1 T cell line) was 46-65 (+) and the Oligoclonal proliferative response ([1]; P1 T cell line, antigen 10 μg/ml) was 21.3 counts per minute × 10^−3. The Oligoclonal proliferative response ([1]; P1 T cell line, antigen 30 μg/ml) was 19.6 counts per minute × 10^−3, the “Proliferation inducing (+) or non-inducing (−) peptide” value ([1]; P2 T cell line) was 46-65 (+) and the Oligoclonal proliferative response ([1]; P2 T cell line, antigen 10 μg/ml) was 13.4 counts per minute × 10^−3. For the same molecule, the Oligoclonal proliferative response ([1]; P2 T cell line, antigen 30 μg/ml) was 22.6 counts per minute × 10^−3, the “Proliferation inducing (+) or non-inducing (−) peptide” value ([1]; P3 T cell line) was 46.65 (+) and the Oligoclonal proliferative response ([1]; P3 T cell line, antigen 10 μg/ml) was 25.8 counts per minute × 10^−3. The Oligoclonal proliferative response ([1]; P3 T cell line, antigen 30 μg/ml) was 19.2 counts per minute × 10^−3, the “Proliferation inducing (+) or non-inducing (−) peptide” value ([1]; P4 T cell line) was 46-65 (+) and the Oligoclonal proliferative response ([1]; P4 T cell line, antigen 10 μg/ml) was 4.4 counts per minute × 10^−3. It also gave an Oligoclonal proliferative response ([1]; P4 T cell line, antigen 30 μg/ml) of 5.3 counts per minute × 10^−3, an Oligoclonal proliferative response ([1]; P5 T cell line, antigen 10 μg/ml) of 4.9 counts per minute × 10^−3 and an Oligoclonal proliferative response ([1]; P5 T cell line, antigen 30 μg/ml) of 5.6 counts per minute × 10^−3. For the same molecule, the Oligoclonal proliferative response ([1]; P6 T cell line, antigen 10 μg/ml) was 1.5 counts per minute × 10^−3, the Oligoclonal proliferative response ([1]; P6 T cell line, antigen 30 μg/ml) was 1.2 counts per minute × 10^−3 and the stimulation index ([1]; fifth of five donors (patient 5)) was 5.6. For the same molecule, the stimulation index ([1]; first of five donors with IgE reactivity to rHev b 5/MBP (patient 1)) was 5.9, the “donors whose T cells proliferated in response to the peptide” value ([1]; five donors with IgE reactivity to rHev b 5/MBP) was “all five donors” and the stimulation index ([1]; fourth of five donors (patient 4)) was 5.9. For the same molecule, the stimulation index ([1]; second of five donors (patient 2)) was 10.8 and the stimulation index ([1]; third of five donors (patient 3)) was 5.0.

B1: Hev b 5: major allergen in natural rubber latex, highly acidic and proline rich protein of Hevea brasiliensis (protein, listed as Hevea brasiliensis)
chain: MASVEVESAATALPKNETPEVTKAEETKTEEPAAPPASEQETADATPEKEEPTAAPAEPEAPAPETEKAEEVEKIEKTEEPAPEADQTTPEEKPAEPEPVAEEEPKHETKETETEAPAAPAEGEKPAEEEKPITEAAETATTEVPVEKTEE
In the case of B1, the “proportion of HCW with latex allergy whose IgE reacts” value (IgE; HCW) is given as 92% and the “proportion of spina bifida patients with latex allergy whose IgE reacts” value (IgE; spina bifida patients) is given as 56%.
